Measured values from US20080171706A1, “Anti-Adhesive Compounds to Prevent and Treat Bacterial Infections” (priority 2004, published 2008).
Like-named read-outs stand apart in the source and are kept apart here.

What was measured:
Assay in all cases: biochemical
[1] = target: T1, FimHtrJ96 (Escherichia coli, UniProt P08191); assay type: binding, uropathogenic E. coli strain J96; details: for ΔG° J96: Table 3, calculated from KD
T1 construct: coding for the lectin domain of FimH (residues 1-158) with a C-terminal 6-histidine tag; made in house; host or cells: E. coli HB101 (lacking the fim operon), periplasmic extract, plasmid pPKL241
Experimental: To measure the dissociation constant for FimH:alkyl or aryl-mannoside binding, two different binding assays were developed. The first binding assay uses [^3H]-mannose. The amount of radioactively labeled mannose bound to FimHtrJ96 was measured at six different concentrations of [^3H]-mannose, and a hyperbolic curve fitted to the resulting data (FIG. 1A). FimHtrJ96 corresponds to the carbohydrate (mannose) binding domain of FimH from the uropathogenic E. coli strain J96. The dissociation equilibrium constant was determined from this graph at the concentration of mannose […], which corresponds to occupation of half of the binding sites.
Surface Plasmon Resonance measurements were performed on a Biacore3000™. In a first experiment, the kinetic constants and maximal binding were determined for the FimH-antibody interaction. Next, a fixed concentration of FimH (close to the KD of the FimH-antibody interaction) in combination with varying concentrations of carbohydrate, were used to determine the dissociation equilibrium constant of the FimH-saccharide interaction in a competition experiment. Every measurement was repeated at least twice, including testing the variation between different protein and saccharide batches.
To eliminate the possibility of different binding strength for full length FimH and FimHtrJ96, the binding of alpha-D-mannose to FimC:FimH complex was also measured. […] The inhibition of [^3H]-mannose binding was used in a displacement assay to determine the dissociation constant for a synthetic butyl mannoside by measuring the amount of [^3H]-mannose bound to the protein in the presence of increasing amounts of the inhibitor (FIG. 1B). […] To investigate the effect of sequential addition of methyl groups to the O1 oxygen of D-mannose, a series of alkyl mannosides were synthesized and the dissociation constants determined using the [^3H]-mannose displacement assay and by surface plasmon resonance (Table 1).
Surface Plasmon Resonance measurements were performed on a Biacore3000™. The Fab fragments of a monoclonal antibody against FimH were covalently immobilised via lysines at 1000 Resonance Units (1000 pg ligand/mm^2) in flowcell Fc2 on a CM5 biasensor chip (BIAapplications Handbook, Biacore AB, Uppsala, Sweden). Immobilisation buffer was 100 mM NaAc pH 5.0 with 100 mM NaCl. The reference flowcell Fc1 was left blank.
Binding of FimH to the immobilized antibody was measured with a Biacore 3000 instrument in running buffer (phosphate buffered saline with 0.005% surfactant P20 and 3 mM EDTA), on both flowcells Fc1 and Fc2 simultaneously, at a flow rate of 30 μl/min and at 25° C. Complete dissociation of FimH was done with running buffer before starting a new binding cycle. For all measurements, the association time was 3 minutes, the dissociation time was 30 min. All binding cycles were performed in duplicate, including a zero concentration cycle of FimH (injection of running buffer).
In a first experiment, the kinetic constants, ka and kd, and the maximal binding Rmax, were determined for the FimH-antibody interaction (FimH concentrations (nM): 2000, 1000, 500, 250, 125, 62.5, 31.25, 15.625, 7.818, 3.911, 1.957, 0). All analyses were performed with the BIAeval software. A Langmuir binding isotherm with a 1:1 stoichiometry was fitted to the data, from which the kinetic constants and maximal binding were obtained.
In the next experiment, samples containing a fixed concentration of FimH (close to the KD of the FimH-antibody interaction) in combination with varying concentrations of saccharide, were used to determine the dissociation constant of the FimH-saccharide interaction in a competition experiment. First, ten-fold dilutions of the saccharide solution were used to determine the concentration range for binding of the saccharide to FimH.

[2] = target: T2, FimHtrCl#4 (Escherichia coli, UniProt P08191, G94E/N91S/S99N/V48A); assay type: binding, E. coli UPEC (Cl#4) strain; details: for Kd: Table 3, [3H]-mannose displacement assay (mannose measured directly), read-out: KD CI#4; for ΔG° CI#4: Table 3, calculated from KD
T2 construct: coding for the lectin domain of FimH (residues 1-158) with a C-terminal 6-histidine tag; made in house; host or cells: E. coli HB101 (lacking the fim operon), periplasmic extract, plasmid pMAS146
Experimental: (§1) To investigate if these variations reflect differences in sugar binding at the molecular level, the dissociation constants of a series of mannosides for the FimH lectin domain from a fecal (F18) and from a UPEC (Cl#4) strain were determined. […] For comparison, binding to FimHtrJ96 was also investigated. Both F18 and Cl#4 FimH lectin domains were cloned, expressed, and purified in the same way as FimHtrJ96 (Schembri et al., 2000). These two lectin domains differ from the lectin domain of FimHJ96 by substitutions Val27Ala, Asn70Ser and Ser78Asn. In addition, FimHCl#4 differs from the other two variants by a Gly73Glu substitution. […] Five different tri-mannosides corresponding to high-mannose substructures were synthesized, and their binding to FimHtrJ96, FimHtrF18 and FimHtrCl#4 measured using our [^3H]-mannose displacement assay (Table 3). Alpha-D-mannose binding was first directly measured for each of the FimH variants.
(§2) [^3H]alpha-D-mannose was obtained from Amersham. […] Syntheses of tri-mannosides was as reported earlier by Oscarson and co-workers (1993). Weighed amounts of tri-mannosides were dissolved in double distilled water to give stock solutions of 0.87 M man-(1,2)-man-(1,2)-man, 0.25 M man-(1,2)-man-(1,3)-man, 0.27 M man-(1,2)-man-(1,6)-man, 0.30 M man-(1,3)-man-(1,6)-man, 0.13 M man-(1,6)-man-(1,6)-man. Similarly, alkyl mannosides were dissolved in double distilled water to give stock solutions of 100 mM methyl mannoside, 59.8 mM ethyl mannoside, 45.9 mM propyl mannoside, 51.9 mM butyl mannoside, 17.3 mM pentyl mannoside, 20.8 mM hexyl mannoside, 15.3 mM heptyl mannoside, 15.2 mM octyl mannoside. pNPalphaMan and MeUmbalphaMan (6 mg each) were dissolved in 20 μl DMSO and diluted to 20 mM using double distilled water. Binding experiments were performed using six different concentrations of [^3H]-alpha-D-mannose (final concentrations 43.5 μM, 29.0 μM, 19.3 μM, 12.9 μM, 8.6 μM, 5.7 μM). FimHtrJ96 obtained by growing bacteria in minimal medium was used in all binding experiments. 180 μl protein at a concentration of about 500 nM was mixed with 20 μl of the radioactive ligand, and incubated at 37° C. for 20 min. To separate free ligand from bound, the mixture was rapidly filtrated through a Protran BA 85 Cellulose-nitrate filter (Schleicher & Schuell, Dassel, Germany), and washed once with 1 ml of ice-cold 1× PBS (phosphate buffered saline). Filter-bound radioactivity was measured by scintillation spectrometry within 24 hours. The displacement experiments were performed using six different concentrations (final concentrations in the range 0.0˜43.5 μM) of the inhibitor, in the presence of 43.5 μM [^3H]-alpha-D-mannose. 20 μl radioactive ligand, 20 μl inhibitor at decreasing concentrations, and 160 μl protein (500 nM) were mixed, and the experiments performed as above. All experiments were performed in duplicates. For determination of KD for α-D-mannose, a hyperbolic curve (y=P1x/(P2+x), where P2=KD) was fitted to the data. For the displacement experiments, the curve y=P1/(P2+x), where P2 is the concentration of the inhibitor displacing 50% of the labelled ligand, [I]0.5 was used instead. To calculate the inhibitor dissociation constant (KI) the Cheng & Prusoff equation (KI=[I]0.5/([L]/KL+1); KL is the constant of dissociation for the ligand) (Cheng and Prusoff, 1973), was used when both the concentration of the radioactive ligand (L) and the displacing agent (I) are in excess over the protein (LT>>PT;IT>>PT, T indicates total concentration). […] A plot of IT/((1−Y)*(LT/KL)−Y) against 1/Y gives a straight line with a slope of KI.

[3] = target: T3, FimHtrF18 (Escherichia coli, UniProt P08191, N91S/S99N/V48A); assay type: binding, E. coli fecal (F18) strain; details: for Kd: Table 3, [3H]-mannose displacement assay (mannose measured directly), read-out: KD F18; for ΔG° F18: Table 3, calculated from KD
T3 construct: coding for the lectin domain of FimH (residues 1-158) with a C-terminal 6-histidine tag; made in house; host or cells: E. coli HB101 (lacking the fim operon), periplasmic extract, plasmid pPKL316
Experimental: as §1, §2

[4] = displacement assay, FimHtrJ96, read-out: KD
[5] = quoted in b67 for comparison with docking, method not given, read-out: experimentally determined dissociation constant Kd
[6] = Table 3, [3H]-mannose displacement assay (mannose measured directly), read-out: KD J96

T1 sequence (P08191 22-179): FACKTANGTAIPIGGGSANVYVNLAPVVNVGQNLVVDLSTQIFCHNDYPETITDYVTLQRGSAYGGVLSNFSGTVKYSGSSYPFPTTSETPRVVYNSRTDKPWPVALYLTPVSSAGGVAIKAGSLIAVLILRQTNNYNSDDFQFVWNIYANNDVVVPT
T3 sequence (P08191 22-179 V48A/N91S/S99N): as the sequence (P08191 22-179) above, with V27A, N70S, S78N counted along it
T2 sequence (P08191 22-179 V48A/N91S/G94E/S99N): as the sequence (P08191 22-179) above, with V27A, N70S, G73E, S78N counted along it

Structure (SMILES): OC[C@H]1O[C@H](O)C[C@@H](O)[C@@H]1O [2-deoxy α-D-mannose]
- Kd [1]: 300 µM
- ΔG° ([1]; Table 2, calculated from KD): -4.8 kcal/mol

Structure (SMILES): CCCCO[C@H]1O[C@H](CO)[C@@H](O)[C@H](O)[C@@H]1O [Butyl man, butyl mannoside]
- Kd ([1]; Table 1, O1 alkyl and aryl mannosides, SPR and displacement binding experiments, read-out: KD): 0.151 µM
- ΔG° ([1]; Table 1, calculated from KD): -9.3 kcal/mol
- Kd ([1]; [3H]-mannose binding or displacement assay, FimHtrJ96, read-out: KD): 0.15 µM
- binding strength relative to D-mannose (times stronger) ([1]; butyl mannoside vs D-mannose, displacement assay): around 15 times

Structure (SMILES): CCO[C@H]1O[C@H](CO)[C@@H](O)[C@H](O)[C@@H]1O [Ethyl man, ethyl mannoside]
- Kd [1]: 1.2 µM
- ΔG° ([1]; Table 1, calculated from KD): -8.1 kcal/mol

Structure (SMILES): CCCCCCCO[C@H]1O[C@H](CO)[C@@H](O)[C@H](O)[C@@H]1O [Heptyl man, heptyl α-D-mannopyranoside]
- Kd [1]: 0.005 µM
- ranking of binders ([1]; SPR and displacement binding experiments, Table 1 series): best binder
- ΔG° ([1]; Table 1, calculated from KD): -11.3 kcal/mol

Structure (SMILES): CCCCCCO[C@H]1O[C@H](CO)[C@@H](O)[C@H](O)[C@@H]1O [Hexyl man, hexyl mannoside]
- Kd [1]: 0.01 µM
- ΔG° ([1]; Table 1, calculated from KD): -10.9 kcal/mol

Structure (SMILES): CO[C@H]1O[C@H](CO)[C@@H](O)[C@H](O)[C@@H]1O [Methyl man, Methyl mannoside]
- Kd [1]: 2.2 µM
- ΔG° ([1]; Table 1, calculated from KD): -7.7 kcal/mol

Structure (SMILES): CCCCCCCCO[C@H]1O[C@H](CO)[C@@H](O)[C@H](O)[C@@H]1O [Octyl man, octyl mannoside]
- Kd [1]: 0.022 µM
- ΔG° ([1]; Table 1, calculated from KD): -10.4 kcal/mol

Structure (SMILES): CCCCCO[C@H]1O[C@H](CO)[C@@H](O)[C@H](O)[C@@H]1O [Pentyl man, pentyl mannoside]
- Kd [1]: 0.025 µM
- ΔG° ([1]; Table 1, calculated from KD): -10.4 kcal/mol

Structure (SMILES): CCCO[C@H]1O[C@H](CO)[C@@H](O)[C@H](O)[C@@H]1O [Propyl man, propyl mannoside]
- Kd [1]: 0.3 µM
- ΔG° ([1]; Table 1, calculated from KD): -8.9 kcal/mol

Structure (SMILES): Cc1cc(=O)oc2cc(O[C@H]3O[C@H](CO)[C@@H](O)[C@H](O)[C@@H]3O)ccc12 [Umbelliferyl man, 4-Methylumbelliferyl α-mannoside]
- ΔG° ([1]; Table 1, calculated from KD): -10.8 kcal/mol
- Kd [1, 4]: 0.012 µM
- Kd [1, 5]: 0.02 µM

Structure (SMILES): O=C(CO)[C@@H](O)[C@H](O)[C@H](O)CO [fructose]
- Kd [1]: 31 µM
- ΔG° ([1]; Table 2, calculated from KD): -6.1 kcal/mol
- affinity relative to mannose (times lower) ([1]; fructose vs mannose, FimH): 15 times

Structure (SMILES): O=C[C@H](O)[C@@H](O)[C@@H](O)[C@H](O)CO [galactose]
- Kd [1]: 100000 µM
- ΔG° ([1]; Table 2, calculated from KD): -1.4 kcal/mol

Structure (SMILES): OC[C@H]1O[C@H](O[C@@H]2[C@@H](O[C@@H]3C(O)O[C@H](CO)[C@@H](O)[C@@H]3O)O[C@H](CO)[C@@H](O)[C@@H]2O)[C@@H](O)[C@@H](O)[C@@H]1O (stereo partly shown) [man-(1,2)-man-(1,2)-man]
- Kd [1, 6]: 1.6 µM
- ΔG° J96 [1]: -8.2 kcal/mol
- Kd [2]: 3.95 µM
- ΔG° CI#4 [2]: -7.7 kcal/mol
- Kd [3]: 3.25 µM
- ΔG° F18 [3]: -7.8 kcal/mol

Structure (SMILES): OC[C@H]1O[C@H](O[C@@H]2[C@@H](O[C@H]3[C@H](O)[C@@H](CO)OC(O)[C@H]3O)O[C@H](CO)[C@@H](O)[C@@H]2O)[C@@H](O)[C@@H](O)[C@@H]1O (stereo partly shown) [man-(1,2)-man-(1,3)-man]
- Kd [1, 6]: 1.8 µM
- ΔG° J96 [1]: -8.1 kcal/mol
- Kd [2]: 3.65 µM
- ΔG° CI#4 [2]: -7.7 kcal/mol
- Kd [3]: 3.05 µM
- ΔG° F18 [3]: -7.8 kcal/mol

Structure (SMILES): OC[C@H]1O[C@H](O[C@@H]2[C@@H](OC[C@H]3OC(O)[C@@H](O)[C@@H](O)[C@@H]3O)O[C@H](CO)[C@@H](O)[C@@H]2O)[C@@H](O)[C@@H](O)[C@@H]1O (stereo partly shown) [man-(1,2)-man-(1,6)-man]
- Kd [1, 6]: 0.83 µM
- ΔG° J96 [1]: -8.6 kcal/mol
- Kd [2]: 2.2 µM
- ΔG° CI#4 [2]: -8.0 kcal/mol
- Kd [3]: 1.8 µM
- ΔG° F18 [3]: -8.1 kcal/mol

Structure (SMILES): O=[N+]([O-])c1ccc(OC2O[C@H](CO)[C@@H](O)[C@H](O)[C@@H]2O)cc1 (stereo partly drawn) [p-Nitrophenyl man, p-Nitrophenyl α-mannoside]
- ΔG° ([1]; Table 1, calculated from KD): -10.3 kcal/mol
- Kd [1, 4]: 0.026 µM
- Kd [1, 5]: 0.044 µM

Structure (SMILES): OC[C@H]1O[C@@](CO)(O[C@H]2O[C@H](CO)[C@@H](O)[C@H](O)[C@H]2O)[C@@H](O)[C@@H]1O [sucrose]
- Kd [1]: 12800 µM
- ΔG° ([1]; Table 2, calculated from KD): -2.6 kcal/mol
